Measured values published in publication PMC11792831, “Design and synthesis of doublecortin-like kinase 1 inhibitors and their bioactivity evaluation” (Journal of Enzyme Inhibition and Medicinal Chemistry, 2023).

Legend:
DCLK1 = target: T1, DCLK1 (Homo sapiens, UniProt O15075); experiment: In vitro DCLK1 kinase activity assay (Eurofins); format: biochemical; details: for Selectivity (IC50 of DCLK1/IC50 of LRRK2): ratio of IC50 values; for Selectivity (DCLK1 activity/LRRK2 activity): ratio of remaining activities at 1 uM; for IC50: read-out: IC50 of DCLK1; for activity at 1 µM: remaining kinase activity at 1 uM compound, 100% = no inhibition, 0% = complete inhibition, read-out: DCLK1 activity (%)
T1 construct: purchased Eurofins (Belgium), contract assay service
T1 sequence (O15075 1-740): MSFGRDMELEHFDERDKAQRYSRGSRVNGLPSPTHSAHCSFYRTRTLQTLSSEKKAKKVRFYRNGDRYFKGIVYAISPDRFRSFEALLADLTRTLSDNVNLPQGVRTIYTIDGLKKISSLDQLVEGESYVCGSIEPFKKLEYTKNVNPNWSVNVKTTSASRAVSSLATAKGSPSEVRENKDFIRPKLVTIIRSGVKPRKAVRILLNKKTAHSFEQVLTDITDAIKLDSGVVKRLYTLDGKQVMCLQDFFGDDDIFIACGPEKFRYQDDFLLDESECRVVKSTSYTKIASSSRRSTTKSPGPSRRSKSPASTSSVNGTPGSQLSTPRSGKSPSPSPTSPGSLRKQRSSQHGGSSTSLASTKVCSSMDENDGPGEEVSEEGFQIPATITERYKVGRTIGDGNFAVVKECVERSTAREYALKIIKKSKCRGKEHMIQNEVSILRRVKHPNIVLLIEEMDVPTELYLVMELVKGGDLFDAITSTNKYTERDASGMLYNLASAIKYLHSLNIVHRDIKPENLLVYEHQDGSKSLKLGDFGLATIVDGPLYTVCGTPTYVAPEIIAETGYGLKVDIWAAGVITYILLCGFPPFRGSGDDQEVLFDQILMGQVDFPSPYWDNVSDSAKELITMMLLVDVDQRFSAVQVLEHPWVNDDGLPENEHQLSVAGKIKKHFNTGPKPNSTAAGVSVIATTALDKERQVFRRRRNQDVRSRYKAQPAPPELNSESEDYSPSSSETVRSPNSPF
Excerpt: (§1) Eurofins (Belgium) conducted in vitro DCLK1 and LRRK2 kinase activity assays. Compounds were sent as dry powders to Eurofins.

LRRK2 = target: T2, LRRK2 (Homo sapiens, UniProt Q5S007); experiment: In vitro LRRK2 kinase activity assay (Eurofins); format: biochemical; details: for activity at 1 µM: remaining kinase activity at 1 uM compound, 100% = no inhibition, 0% = complete inhibition
T2 construct: purchased Eurofins (Belgium), contract assay service
Experimental: All compounds were tested for their kinase inhibitory activity at the concentration of 1 μM. […] Compounds with high activity or good selectivity were selected for further IC50 determination (Table 2).
as §1

HCT116 = experiment: In vitro cytotoxicity / anti-proliferation assay (CCK8); format: cell-based; details: Homo sapiens, HCT-116, colorectal cancer cell line HCT116, 72 h
Experimental: To determine whether DCLK1 was required for tumour cell proliferation, the cytotoxicity of compounds was evaluated in colorectal cancer cell line HCT116. HCT116 was treated with compounds for 72 h, and the cell viability was determined using CCK8 assay (Figure 4). The antiproliferative effects of most compounds on HCT116 were correlated with their DCLK1 inhibitory activities, except for compounds D1 and D2. The poor cytotoxicity of compounds D1 and D2 may be attributed to their poor cell membrane permeability due to the negatively charged carboxylates. […] Overall, targeting DCLK1 inhibited the proliferation of HCT116, indicating the importance of DCLK1 in tumour growth.
A 96-well plate (3599, Corning, USA) was inoculated with 100 μL of complete medium containing 10 000 cells, and the experimental, control, and blank groups were established. Three parallel wells were used per concentration. After 10 h, media from the experimental and control groups were replaced with a complete medium containing the indicated concentration of the compound. Cells were incubated for 72 h before 10 μL of CCK8 reagent (CA1210, Solarbio, China) was added to each well and incubated for 1 h. The absorbance at 450 nm was measured with a microplate reader (Tecan, Switzerland). The IC50 was determined using GraphPad Prism 8 and nonlinear regression curve fitting.

T2 sequence (Q5S007 whole entry): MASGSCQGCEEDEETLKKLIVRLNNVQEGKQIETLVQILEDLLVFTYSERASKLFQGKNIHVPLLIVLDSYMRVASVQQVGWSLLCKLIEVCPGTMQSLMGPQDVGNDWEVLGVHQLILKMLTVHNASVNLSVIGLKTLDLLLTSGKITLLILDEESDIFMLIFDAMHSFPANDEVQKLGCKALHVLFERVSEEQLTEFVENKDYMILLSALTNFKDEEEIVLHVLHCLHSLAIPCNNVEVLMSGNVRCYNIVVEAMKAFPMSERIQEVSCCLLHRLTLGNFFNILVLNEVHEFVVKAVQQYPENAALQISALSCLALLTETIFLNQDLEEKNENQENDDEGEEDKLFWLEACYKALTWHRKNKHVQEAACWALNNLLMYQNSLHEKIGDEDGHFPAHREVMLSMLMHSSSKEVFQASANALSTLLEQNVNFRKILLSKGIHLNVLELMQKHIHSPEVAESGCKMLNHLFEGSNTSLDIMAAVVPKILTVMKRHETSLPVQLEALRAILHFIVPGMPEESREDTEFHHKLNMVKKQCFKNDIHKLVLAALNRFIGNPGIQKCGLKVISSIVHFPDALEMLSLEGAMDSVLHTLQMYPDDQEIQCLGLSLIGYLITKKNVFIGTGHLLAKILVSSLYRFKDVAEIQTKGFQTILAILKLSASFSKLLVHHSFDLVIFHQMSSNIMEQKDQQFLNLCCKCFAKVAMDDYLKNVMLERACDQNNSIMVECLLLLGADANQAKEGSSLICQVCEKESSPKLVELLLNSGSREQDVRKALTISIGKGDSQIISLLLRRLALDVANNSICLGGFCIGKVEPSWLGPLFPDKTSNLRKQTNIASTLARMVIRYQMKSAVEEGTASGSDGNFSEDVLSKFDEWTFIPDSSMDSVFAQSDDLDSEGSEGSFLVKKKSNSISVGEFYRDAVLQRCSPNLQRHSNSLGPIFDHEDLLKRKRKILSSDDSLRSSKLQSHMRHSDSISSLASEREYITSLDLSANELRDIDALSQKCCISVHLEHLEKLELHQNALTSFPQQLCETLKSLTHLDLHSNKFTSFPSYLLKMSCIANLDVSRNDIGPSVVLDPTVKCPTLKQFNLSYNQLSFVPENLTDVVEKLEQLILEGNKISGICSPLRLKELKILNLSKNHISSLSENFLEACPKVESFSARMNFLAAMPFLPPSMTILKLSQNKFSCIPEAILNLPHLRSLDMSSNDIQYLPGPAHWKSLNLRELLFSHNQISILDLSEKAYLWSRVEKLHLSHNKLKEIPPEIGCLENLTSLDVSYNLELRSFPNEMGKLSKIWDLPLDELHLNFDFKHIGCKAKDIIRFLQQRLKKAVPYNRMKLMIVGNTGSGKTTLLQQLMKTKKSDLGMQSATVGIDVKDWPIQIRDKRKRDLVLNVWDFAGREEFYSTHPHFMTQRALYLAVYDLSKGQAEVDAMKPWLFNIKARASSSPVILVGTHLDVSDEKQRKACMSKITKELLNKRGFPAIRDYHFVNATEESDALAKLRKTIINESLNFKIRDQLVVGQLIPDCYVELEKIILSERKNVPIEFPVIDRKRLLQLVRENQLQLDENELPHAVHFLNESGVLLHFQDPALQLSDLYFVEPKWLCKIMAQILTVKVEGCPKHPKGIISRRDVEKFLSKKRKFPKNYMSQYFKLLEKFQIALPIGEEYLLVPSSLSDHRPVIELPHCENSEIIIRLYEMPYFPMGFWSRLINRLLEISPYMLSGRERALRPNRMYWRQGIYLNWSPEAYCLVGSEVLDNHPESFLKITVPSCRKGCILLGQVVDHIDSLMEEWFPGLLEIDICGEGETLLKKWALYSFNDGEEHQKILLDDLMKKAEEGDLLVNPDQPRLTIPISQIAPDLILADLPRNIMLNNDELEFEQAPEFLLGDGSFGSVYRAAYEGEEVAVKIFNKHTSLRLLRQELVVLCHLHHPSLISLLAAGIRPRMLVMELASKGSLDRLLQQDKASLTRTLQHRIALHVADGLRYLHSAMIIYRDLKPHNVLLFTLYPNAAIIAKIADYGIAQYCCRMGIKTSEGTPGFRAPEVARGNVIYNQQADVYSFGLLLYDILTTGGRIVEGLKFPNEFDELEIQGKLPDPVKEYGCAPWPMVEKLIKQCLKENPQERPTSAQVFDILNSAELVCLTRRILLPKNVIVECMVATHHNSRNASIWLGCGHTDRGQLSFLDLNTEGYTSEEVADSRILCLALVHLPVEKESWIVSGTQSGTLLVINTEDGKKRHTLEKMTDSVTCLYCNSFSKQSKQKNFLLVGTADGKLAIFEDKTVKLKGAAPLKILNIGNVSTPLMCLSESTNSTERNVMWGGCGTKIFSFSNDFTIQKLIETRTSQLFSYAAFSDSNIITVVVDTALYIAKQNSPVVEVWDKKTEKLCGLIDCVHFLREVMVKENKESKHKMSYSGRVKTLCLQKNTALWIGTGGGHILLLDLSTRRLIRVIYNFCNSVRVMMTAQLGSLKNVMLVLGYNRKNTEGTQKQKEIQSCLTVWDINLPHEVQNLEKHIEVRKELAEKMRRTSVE

| Compound | Selectivity (IC50 of DCLK1/IC50 of LRRK2) (DCLK1) | Selectivity (DCLK1 activity/LRRK2 activity) (DCLK1) | IC50 (DCLK1) [nM] | activity at 1 µM (DCLK1) [%] | IC50 (LRRK2) [nM] | activity at 1 µM (LRRK2) [%] | IC50 (HCT116) [µM] | melting point [°C] |
| --- | --- | --- | --- | --- | --- | --- | --- | --- |
| COc1cc(NC(=O)CCC(=O)O)ccc1Nc1ncc2c(n1)N(C)c1ccccc1C(=O)N2C [Compound D2, 4-((4-((5,11-Dimethyl-6-oxo-6,11-dihydro-5H-benzo[e]pyrimido[5,4-b][1,4]diazepin-2-yl)amino)-3-methoxyphenyl)amino)-4-oxobutanoic acid] | <0.07 | 0.20 | 70 | 10 | > 1000 | 49 | > 100 | 237 to 238 |
| COc1cc(N2CCCCC2)ccc1Nc1ncc2c(n1)N(C)c1ccccc1C(=O)N2C [Compound D11, 2-((2-Methoxy-4-(piperidin-1-yl)phenyl)amino)-5,11-dimethyl-5,11-dihydro-6H-benzo[e]pyrimido[5,4-b][1,4]diazepin-6-one] | 0.38 | 0.61 | 100 | 11 | 266 | 18 | 11.5 | 166 to 167 |
| CCOc1cc(N2CC[S+]([O-])CC2)ccc1Nc1ncc2c(n1)N(C)c1ccccc1C(=O)N2C [Compound D5, 2-((2-ethoxy-4-(1-Oxidothiomorpholino)phenyl)amino)-5,11-dimethyl-5,11-dihydro-6H-benzo[e]pyrimido[5,4-b][1,4]diazepin-6-one] | 0.46 | 0.57 | 146 | 12 | 320 | 21 | 10.7 | 163 to 164 |
| CCOc1cc(N2CCC(C(=O)O)CC2)ccc1Nc1ncc2c(n1)N(C)c1ccccc1C(=O)N2C [Compound D3, 1-(4-((5,11-Dimethyl-6-oxo-6,11-dihydro-5H-benzo[e]pyrimido[5,4-b][1,4]diazepin-2-yl)amino)-3-ethoxyphenyl)piperidine-4-carboxylic acid] | <0.34 | 0.59 | 340 | 20 | > 1000 | 34 | 21.5 | 159 to 160 |
| CCOc1cc(N2CCC(O)CC2)ccc1Nc1ncc2c(n1)N(C)c1cccc(F)c1C(=O)N2C [Compound A9, 2-((2-Ethoxy-4-(4-hydroxypiperidin-1-yl)phenyl)amino)-7-fluoro-5,11-dimethyl-5,11-dihydro-6H-benzo[e]pyrimido[5,4-b][1,4]diazepin-6-one] | <0.34 | 0.34 | 338 | 17 | > 1000 | 50 | 20.5 | 174 to 175 |
| COc1cc(NC(=O)CCCCCSC(C)=O)ccc1Nc1ncc2c(n1)N(C)c1ccccc1C(=O)N2C [Compound D8, S-(6-((4-((5,11-dimethyl-6-oxo-6,11-dihydro-5H-benzo[e]pyrimido[5,4-b][1,4]diazepin-2-yl)amino)-3-methoxyphenyl)amino)-6-oxohexyl) ethanethioate] | 0.18 | 0.36 | 40 | 8 | 228 | 22 | 11.5 | 159 to 160 |
| COc1cc(N2CCC(F)(F)CC2)ccc1Nc1ncc2c(n1)N(C)c1ccccc1C(=O)N2C [Compound D14, 2-((4-(4,4-Difluoropiperidin-1-yl)-2-methoxyphenyl)amino)-5,11-dimethyl-5,11-dihydro-6H-benzo[e]pyrimido[5,4-b][1,4]diazepin-6-one] | 0.40 | 0.44 | 53 | 7 | 132 | 16 | 15.5 | 171 to 172 |
| CCOc1cc(N2CCC(O)CC2)ccc1Nc1ncc2c(n1)N(C)c1ccccc1C(=O)N2CC [Compound B3, 2-((2-Ethoxy-4-(4-hydroxypiperidin-1-yl)phenyl)amino)-5-ethyl-11-methyl-5,11-dihydro-6H-benzo[e]pyrimido[5,4-b][1,4]diazepin-6-one] | <0.32 | 0.40 | 324 | 28 | > 1000 | 70 | 33.2 | 162 to 163 |
| CCOc1cc(N2CCN(C[C@@]3(O)OC[C@@H](O)[C@@H](O)[C@@H]3O)CC2)ccc1Nc1ncc2c(n1)N(C)c1ccccc1C(=O)N2C [Compound D7, 2-((2-Ethoxy-4-(4-(((2R,3S,4R,5R)-2,3,4,5-tetrahydroxytetrahydro-2H-pyran-2-yl)methyl)piperazin-1-yl)phenyl)amino)-5,11-dimethyl-5,11-dihydro-6H-benzo[e]pyrimido[5,4-b][1,4]diazepin-6-one] | 0.30 | 0.29 | 46 | 6 | 154 | 21 | 10.5 | 126 to 127 |
| COc1cc(NC(=O)CC(=O)O)ccc1Nc1ncc2c(n1)N(C)c1ccccc1C(=O)N2C [Compound D1, 3-((4-((5,11-Dimethyl-6-oxo-6,11-dihydro-5H-benzo[e]pyrimido[5,4-b][1,4]diazepin-2-yl)amino)-3-methoxyphenyl)amino)-3-oxopropanoic acid] | <0.05 | 0.13 | 47 | 7 | > 1000 | 56 | > 100 | 187 to 188 |
| CCOc1cc(N2CCC(O)CC2)ccc1Nc1ncc2c(n1)N(C)c1ccc(F)cc1C(=O)N2C [Compound A6, 2-((2-Ethoxy-4-(4-hydroxypiperidin-1-yl)phenyl)amino)-8-fluoro-5,11-dimethyl-5,11-dihydro-6H-benzo[e]pyrimido[5,4-b][1,4]diazepin-6-one] | <0.37 | 0.37 | 365 | 19 | > 1000 | 51 | 24.7 | 166 to 167 |
| CCOc1cc(N2CCS(=O)(=O)CC2)ccc1Nc1ncc2c(n1)N(C)c1ccccc1C(=O)N2C [Compound D6, 2-((4-(1,1-Dioxidothiomorpholino)-2-ethoxyphenyl)amino)-5,11-dimethyl-5,11-dihydro-6H-benzo[e]pyrimido[5,4-b][1,4]diazepin-6-one] | 0.38 | 0.47 | 74 | 9 | 195 | 19 | 12 | 157 to 158 |
| COc1cc(N2CCC(OC)CC2)ccc1Nc1ncc2c(n1)N(C)c1ccccc1C(=O)N2C [Compound D12, 2-((2-Methoxy-4-(4-methoxypiperidin-1-yl)phenyl)amino)-5,11-dimethyl-5,11-dihydro-6H-benzo[e]pyrimido[5,4-b][1,4]diazepin-6-one] | 0.47 | 0.50 | 47 | 5 | 99 | 10 | 10.1 | 179 to 180 |
